Tests used:
[1] = target: Neuropilin-1 (Homo sapiens) (UniProt O14786); assay: Inhibition of [125I]-VEGF-A165 binding to NRP1 (unknown origin) transfected in HUVECs incubated for 2 hrs by plate reader analysis
[2] = target: Cyclin-dependent kinase 4/Cyclin D1; assay: Inhibition of CDK4/Cyclin D1 (unknown origin)

Sequence of Neuropilin-1 (Homo sapiens) (O14786 whole entry, looked up): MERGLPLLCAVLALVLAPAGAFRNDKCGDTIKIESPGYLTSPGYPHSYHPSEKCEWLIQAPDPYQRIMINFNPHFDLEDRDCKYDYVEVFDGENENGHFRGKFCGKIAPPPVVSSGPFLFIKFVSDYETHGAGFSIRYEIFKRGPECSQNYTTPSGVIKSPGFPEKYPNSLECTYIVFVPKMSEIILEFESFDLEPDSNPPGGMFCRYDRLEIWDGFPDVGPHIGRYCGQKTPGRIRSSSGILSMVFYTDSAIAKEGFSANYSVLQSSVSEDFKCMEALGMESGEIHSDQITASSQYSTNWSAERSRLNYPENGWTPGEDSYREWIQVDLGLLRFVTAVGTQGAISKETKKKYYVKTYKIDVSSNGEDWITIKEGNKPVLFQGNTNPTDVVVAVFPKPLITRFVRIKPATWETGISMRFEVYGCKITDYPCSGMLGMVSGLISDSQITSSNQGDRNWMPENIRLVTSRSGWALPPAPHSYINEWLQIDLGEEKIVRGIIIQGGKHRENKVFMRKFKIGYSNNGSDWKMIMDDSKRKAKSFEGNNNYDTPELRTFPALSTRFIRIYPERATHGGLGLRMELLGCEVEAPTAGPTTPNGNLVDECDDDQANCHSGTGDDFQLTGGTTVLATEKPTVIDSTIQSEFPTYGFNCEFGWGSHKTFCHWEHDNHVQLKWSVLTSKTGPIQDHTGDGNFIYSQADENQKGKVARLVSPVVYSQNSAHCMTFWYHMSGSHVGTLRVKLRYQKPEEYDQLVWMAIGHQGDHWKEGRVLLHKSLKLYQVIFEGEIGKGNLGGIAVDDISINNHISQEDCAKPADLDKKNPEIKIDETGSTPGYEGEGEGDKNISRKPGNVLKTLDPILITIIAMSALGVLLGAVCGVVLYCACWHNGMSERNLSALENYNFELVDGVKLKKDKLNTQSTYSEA

| Structure (SMILES) | IC50 [1] | IC50 [2] |
| --- | --- | --- |
| NC(N)=NCCC[C@H](NC(=O)c1sccc1NS(=O)(=O)c1cccc2nsnc12)C(=O)O [(S)-2-(3-(benzo[c][1,2,5]thiadiazole-4-sulfonamido)thiophene-2-carboxamido)-5-guanidinopentanoic acid] | 2.91 µM |  |
| COc1ccc(/C=C\c2cc(OC)c(OC)c(OC)c2)cc1NC(=O)/C=C/C(=O)N[C@@H](CCCNC(=N)N)C(=O)O | 3.91 µM |  |
| COc1ccc(/C=C\c2cc(OC)c(OC)c(OC)c2)cc1NC(=O)CCCC(=O)N[C@@H](CCCNC(=N)N)C(=O)O | 6.33 µM |  |
| COc1ccc(/C=C\c2cc(OC)c(OC)c(OC)c2)cc1NC(=O)CCCCCCC(=O)N[C@@H](CCCNC(=N)N)C(=O)O | 15 µM |  |

Other lines, results leading:

| IC50 [1] | IC50 [2] | Structure (SMILES) |
| --- | --- | --- |
| 0.85 µM | > 10 µM | COc1ccc(/C=C\c2cc(OC)c(OC)c(OC)c2)cc1NC(=O)CCC(=O)N[C@@H](CCCNC(=N)N)C(=O)O |
| 8.94 µM |  | COc1ccc(/C=C\c2cc(OC)c(OC)c(OC)c2)cc1NC(=O)CCCCC(=O)N[C@@H](CCCNC(=N)N)C(=O)O |
